Values quoted from earlier work, collected in US20220202682A1, “INCREASING THE STABILITY OF AGENTS FOR THE TREATMENT OF KERATINOUS MATERIAL” (Henkel AG & Co. KGaA, priority 2019, published 2022).

Details: 25° C.

SMILES	solubility in water
O=S(=O)([O-])c1ccc(N=Nc2c(O)ccc3ccccc23)cc1.[Na+] [Acid Orange 7, sodium salt of 4-[(2-hydroxy-1-naphthyl)azo]benzene sulphonate]	more than 7 g/L
Nc1cc(S(=O)(=O)[O-])cc2cc(S(=O)(=O)[O-])c(N=Nc3ccccc3)c(O)c12.[Na+].[Na+] [Acid Red 33, disodium salt of 5-amino-4-hydroxy-3-(phenylazo)-naphthalene-2,7-disulphonate]	2500 µg/mL
O=C([O-])c1c(Cl)c(Cl)c(Cl)c(Cl)c1-c1c2c(Br)cc(=O)c(Br)c-2oc2c(Br)c(O)cc(Br)c12.O=C([O-])c1c(Cl)c(Cl)c(Cl)c(Cl)c1-c1c2c(Br)cc(=O)c(Br)c-2oc2c(Br)c(O)cc(Br)c12.[Na+].[Na+] [Acid Red 92, disodium salt of 3,4,5,6-tetrachloro-2-(1,4,5,8-tetrabromo-6-hydroxy-3-oxoxanthen-9-yl)benzoic acid]	greater than 10 g/L
O=C([O-])C1=NN(c2ccc(S(=O)(=O)[O-])cc2)C(=O)C1N=Nc1ccc(S(=O)(=O)[O-])cc1.[Na+].[Na+].[Na+] (stereo not shown) [Acid Yellow 23, trisodium salt of 4,5-dihydro-5-oxo-1-(4-sulfophenyl)-4-((4-sulfophenyl)azo)-1H-pyrazole-3-carboxylic acid]	highly soluble
